Source: BindingDB's records for PubMed 1836757 (University of Heidelberg, 1991)

Target: 5-hydroxytryptamine receptor 1A/1B/1D/2C (Homo sapiens, UniProt P08908+P28221+P28222+P28335)
Sequence (P08908 whole entry): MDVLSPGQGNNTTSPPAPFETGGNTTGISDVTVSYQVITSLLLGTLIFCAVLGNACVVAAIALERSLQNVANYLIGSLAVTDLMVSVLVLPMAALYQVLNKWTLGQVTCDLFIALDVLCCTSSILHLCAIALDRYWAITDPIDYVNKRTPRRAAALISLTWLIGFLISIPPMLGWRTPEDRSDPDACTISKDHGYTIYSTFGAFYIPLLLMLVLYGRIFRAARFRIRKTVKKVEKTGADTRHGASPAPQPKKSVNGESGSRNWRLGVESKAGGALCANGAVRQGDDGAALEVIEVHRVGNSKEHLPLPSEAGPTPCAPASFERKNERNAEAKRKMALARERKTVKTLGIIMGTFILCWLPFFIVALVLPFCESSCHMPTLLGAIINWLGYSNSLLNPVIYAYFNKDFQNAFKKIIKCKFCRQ
Sequence (P28222 whole entry): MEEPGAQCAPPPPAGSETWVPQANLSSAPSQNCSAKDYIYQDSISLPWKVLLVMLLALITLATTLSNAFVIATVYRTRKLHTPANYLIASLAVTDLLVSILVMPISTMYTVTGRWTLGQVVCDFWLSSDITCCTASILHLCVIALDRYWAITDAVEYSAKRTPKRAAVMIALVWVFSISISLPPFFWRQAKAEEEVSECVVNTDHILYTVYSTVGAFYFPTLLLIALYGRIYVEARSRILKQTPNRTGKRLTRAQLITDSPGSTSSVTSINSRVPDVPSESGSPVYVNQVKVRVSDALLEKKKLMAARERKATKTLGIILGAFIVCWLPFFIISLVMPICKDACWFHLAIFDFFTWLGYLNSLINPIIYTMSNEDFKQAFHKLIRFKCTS
Sequence (P28221 whole entry): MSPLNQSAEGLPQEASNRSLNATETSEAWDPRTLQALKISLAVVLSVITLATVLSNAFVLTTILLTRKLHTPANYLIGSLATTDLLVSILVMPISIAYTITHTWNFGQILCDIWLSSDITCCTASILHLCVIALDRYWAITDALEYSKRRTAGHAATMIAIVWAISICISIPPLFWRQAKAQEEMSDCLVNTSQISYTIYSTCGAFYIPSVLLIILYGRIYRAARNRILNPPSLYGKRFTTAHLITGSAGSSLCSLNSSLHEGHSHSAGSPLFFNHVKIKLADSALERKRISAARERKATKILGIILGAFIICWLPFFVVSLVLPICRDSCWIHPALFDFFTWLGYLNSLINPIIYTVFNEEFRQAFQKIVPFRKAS
Sequence (P28335 whole entry): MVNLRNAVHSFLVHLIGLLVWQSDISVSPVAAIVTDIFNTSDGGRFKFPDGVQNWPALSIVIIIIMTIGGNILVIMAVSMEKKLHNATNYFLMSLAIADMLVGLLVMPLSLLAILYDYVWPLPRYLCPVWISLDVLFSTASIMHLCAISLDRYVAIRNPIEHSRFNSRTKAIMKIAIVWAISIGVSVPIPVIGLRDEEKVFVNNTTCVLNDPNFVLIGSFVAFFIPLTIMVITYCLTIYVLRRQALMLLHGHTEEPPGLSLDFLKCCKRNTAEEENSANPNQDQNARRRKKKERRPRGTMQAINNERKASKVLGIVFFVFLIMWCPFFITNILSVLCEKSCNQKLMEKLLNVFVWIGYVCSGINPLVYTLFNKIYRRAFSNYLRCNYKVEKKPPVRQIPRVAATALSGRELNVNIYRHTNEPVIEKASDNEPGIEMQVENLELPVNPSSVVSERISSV

| Compound | Ki [nM] |
| --- | --- |
| CN1C2CCC1CC(OC(=O)c1c[nH]c3ccccc13)C2 (configuration not stated) | > 10000 |
| CC[C@@H](CO)NC(=O)[C@@H]1C=C2c3cccc4c3c(cn4C)C[C@H]2N(C)C1 | 436 |
